{
  "source": "patent US20060217315A1",
  "about": "“Method of controlled ovarian hyperstimulation and pharmaceutical kit for use in such method” (priority 2001, published 2006)",
  "key": {"endometrium": {"tested_on": "endometrium", "assay": "Controlled clinical study of endometrial receptivity in oocyte donors undergoing COH (glandular dating, pinopodes)", "format": "in vivo, human", "conditions": "endometrial biopsy day 7 after hCG injection", "procedure": "An open-label, randomized and controlled clinical study is performed in oocyte donors undergoing COH and in whom premature LH-surges are prevented by either standard GnRH agonist treatment (5 oocyte donors) or mifepristone treatment (5 oocyte donors) with the objective to compare endometrial receptivity. In women treated with 40 mg orally administered mifepristone, the procedure as set forth in example 1 is used, with the proviso that instead of administering progesterone for 12 weeks, daily intravaginal progesterone supplementation with 400 mg is started immediately after the hCG treatment and continued until the day of endometrial biopsy (day 7 after hCG injection in donors). To oocyte donors in the reference group, undergoing COH and receiving GnRH agonist, treatment with GnRH agonist is started in the midluteal phase of the preceding menstrual cycle and given concomitantly with recombinant FSH from day 2 or 3 of the COH cycle up to and including the day of hCG treatment Vaginal progesterone supplementation is started in the GnRH-treated oocyte donors directly after oocyte retrieval (36-38 hours after hCG injection) and continued until the day of endometrial biopsy (day 7 after hCG injection). Endometrial samples are taken from all oocyte donors. […]"}, "premature LH-surge": {"tested_on": "premature LH-surge", "assay": "Open-label uncontrolled clinical trial of premature LH-surge prevention in COH with IVF and embryo transfer", "format": "in vivo, human", "conditions": "for prevention of premature LH-rises (above levels of 10 IU/L): day 6 of recombinant FSH treatment until day of hCG treatment", "procedure": "An open-label, uncontrolled clinical trial is performed to investigate the efficacy, safety, and tolerability of premature LH-surge prevention in 30 female subjects undergoing COH and subsequent IVF and embryo transfer (ET), using a daily oral dosage of 40 mg mifepristone from day 6 of recombinant FSH treatment up to and including the day of hCG treatment and thrice daily intravaginal progesterone supplementation with 200 mg starting immediately after the hCG treatment for a period of up to 12 weeks. Although this treatment is suitable for all types of IVF patients (e.g. within the age range 18 to 45 years, with or without displaying polycystic ovarian syndrome and with or without a regular cycle), the following selection criteria are set forth in the investigation: healthy female partners of infertile couples; age at the time of screening between 20 and 39 years; a body mass index (BMI) between 19 and 29 kg/m^2; a regular menstrual cycle, and willing to give a written informed consent. Prior to the first administration of recombinant FSH a blood sample is taken for hormone analysis (estradiol and LH) and a standard urinary hCG assay is performed to exclude pregnancy. Recombinant FSH treatment is started at day 2 or 3 of menses onwards by a daily subcutaneous injection until the day of hCG administration. During the first 5 days of recombinant FSH treatment the dose is fixed at 150 IU. Starting at day 6, blood samples for hormone analysis are taken every two days prior to drug administration and ultrasonographic monitoring of follicle growth is performed to adjust, if necessary, the daily injectable dose of recombinant FSH. A subcutaneous injection with urinary hCG (5.000 IU) and an intramuscular injection of 50 mg progesterone are administered simultaneously, when at least three follicles exceed a diameter of 17 mm as measured by ultrasound scan and subsequently oocyte retrieval is performed 30-38 hours later. Using the procedure as set forth in example 1, with the proviso that, instead of using a daily dose of 40 mg mifepristone, mifepristone is used at a daily dose of 20 mg, a similar clinical outcome is obtained at a lower anti-P exposure level in the female subjects. […] Using the procedure as set forth in example 1, with the proviso that, instead of using a daily dose of 40 mg mifepristone, mifepristone is used at a daily dose of 10 mg, a similar clinical outcome is obtained at a lower anti-P exposure level in the female subjects."}, "[1]": {"tested_on": "midcycle gonadotropin surge", "conditions": "cited from earlier work"}, "folliculogenesis": {"tested_on": "folliculogenesis", "conditions": "50 mg/day tablets from cycle day 2 until hCG injection, with recombinant FSH; cited from earlier work"}, "endogenous LH surge": {"tested_on": "endogenous LH surge", "assay": "Clinical investigation: intramuscular progesterone instead of hCG to allow an endogenous LH surge in COH", "format": "in vivo, human", "procedure": "An open-label, uncontrolled clinical investigation is performed in 5 healthy female volunteers undergoing COH and subsequent IVF and ET, using the procedure as set forth in example 1, with the proviso that in stead of administering hCG a single intramuscular injection of 50 mg progesterone is administered to allow an endogenous LH surge to occur, inducing resumption of meiosis and luteinisation."}, "uterine contractility": {"tested_on": "uterine contractility", "conditions": "vaginal administration starting on the day of oocyte retrieval, compared with preovulatory values; cited from earlier work"}},
  "data": [
    {"smiles": "CC#C[C@]1(O)CC[C@H]2[C@@H]3CCC4=CC(=O)CCC4=C3[C@@H](c3ccc(N(C)C)cc3)C[C@@]21C", "note": "[mifepristone]", "values": [
      {"measurement": "endometrial glandular dating", "setting": "endometrium; hematoxylin and eosin staining", "value": "typically in-phase glandular dating is observed"},
      {"measurement": "presence of pinopodes", "setting": "endometrium; scanning electron microscopy", "value": "pinopodes are readily visible"},
      {"measurement": "tolerability and adverse effects", "setting": "premature LH-surge; 10 mg daily oral", "value": "well tolerated and shows no adverse effects"},
      {"measurement": "prevention of premature LH-rises (above levels of 10 IU/L)", "setting": "premature LH-surge; 10 mg daily oral", "value": "efficacious in preventing premature LH-rises"},
      {"measurement": "tolerability and adverse effects", "setting": "premature LH-surge; 20 mg daily oral", "value": "well tolerated and shows no adverse effects"},
      {"measurement": "prevention of premature LH-rises (above levels of 10 IU/L)", "setting": "premature LH-surge; 20 mg daily oral", "value": "efficacious in preventing premature LH-rises"},
      {"measurement": "tolerability and adverse effects", "setting": "premature LH-surge; 40 mg daily oral", "value": "well tolerated and shows no adverse effects"},
      {"measurement": "prevention of premature LH-rises (above levels of 10 IU/L)", "setting": "premature LH-surge; 40 mg daily oral", "value": "efficacious in preventing premature LH-rises"},
      {"measurement": "timing of the midcycle gonadotropin surge and collapse of the dominant follicle", "setting": "[1]; 1 mg/day for 5 or 15 days, starting when dominant follicle reached 14-16 mm", "value": "consistently delayed"},
      {"measurement": "emergence of periovulatory progesterone rise", "setting": "[1]; 1 mg/day for 5 or 15 days", "value": "delayed the emergence of periovulatory progesterone rise"},
      {"measurement": "effect on follicular development", "setting": "folliculogenesis", "value": "arrests follicular development by delaying the growth of the dominant follicle"},
      {"measurement": "occurrence of LH-surges prior to hCG injection", "setting": "folliculogenesis", "value": "may prevent the occurrence of LH-surges"}
    ]},
    {"smiles": "CC(=O)[C@H]1CC[C@H]2[C@@H]3CCC4=CC(=O)CC[C@]4(C)[C@H]3CC[C@]12C", "note": "[progesterone]", "values": [
      {"measurement": "oocyte quality at harvest", "setting": "endogenous LH surge; harvested at 36-3836 hours after starting progesterone treatment", "value": "retrieval of good quality oocytes"},
      {"measurement": "occurrence of endogenous LH-surges", "setting": "endogenous LH surge; single intramuscular injection of 50 mg, after 40 mg mifepristone COH procedure", "value": "efficacious in allowing endogenous LH-surges to occur"},
      {"measurement": "LH and FSH surges when added to RU486", "setting": "[1]; 5-10 mg/day, im, for 2 days, added to a 5-day course of RU486", "value": "readily induced LH and FSH surges and completely reversed the effects of RU486 at midcycle"},
      {"measurement": "uterine contraction frequency on the day of embryo transfer", "setting": "uterine contractility", "value": "induced a decrease in uterine contraction frequency"}
    ]}
  ]
}
